The values that follow come from US20240041813A1, “VERY-LONG-CHAIN POLYUNSATURATED FATTY ACIDS, ELOVANOID HYDROXYLATED DERIVATIVES, AND METHODS OF USE” (priority 2020, published 2024).

“Also recorded” adds a separate entry of the source.

The subject of assay [1] is receptor-binding domain (RBD) of the SARS-CoV-2 spike. In kind it is cell-based, human.
The next assay has as its system ACE-2 receptor. The assay is described as follows: ACE-2 protein abundance by Jess capillary western in human alveoli in culture. It is filed as cell-based. The following applies: effect dependent on addition of IL-1b. From the text:
The Simple Protein platform Jess allows running a protein mixture in a capillary system that also serves as a probing matrix for the antibodies. This platform obviates the need to transfer the size-separated proteins onto a membrane with the consequent loss of sample. The sample amount that can be run in Jess is several times smaller than that required for Western blots. Therefore, high throughput is facilitated in cell cultures. The antibodies to this protein have been validated in our laboratory.
c.1.b. Protein abundance using Jess technology. The Simple Protein platform Jess allows running a protein mixture in a capillary electrophoretic system as a probing matrix for the antibodies (we refer to western blot as “Jess WB” here). This platform obviates the need to transfer the size-separated proteins onto a membrane with a potential loss of sample. The sample size run in Jess is several times smaller than that for classical WB. (400 ng protein/capillary column vs. 10 or more μg for classical WB). The proteins we assess will include ACE2, Furin, ADAM17, DPP4, TMPRSS2, protein surfactant D, and Cathepsin L. In addition, senescence and SASP proteins will also be analyzed. […]
ACE2 Protein abundance using Jess technology. […] Soluble protein concentration was determined by BCA assay (Thermo Fisher Scientific, Cat. 23225) and 0.4 μg used/reaction. […]

Assay [2] deals with ACE2. The assay is described as follows: Rat cornea alkali burn: ACE2 abundance by Jess capillary-based Western Blot. It is filed as in vivo. The settings on record: rat cornea after alkali burn; eye drops 20 μl/eye, 3 times/day for 14 days; day 14. From the text: Sprague-Dawley rats (8-week-old male) were obtained from Charles River Laboratories (Wilmington, MA, USA) and kept at the Animal Care of the Neuroscience Center of Excellence, Louisiana State University Health (LSUH; New Orleans, LA, USA). All animals were handled in compliance with the guidelines of the ARVO Statement for the Use of Animals in Ophthalmic and Vision Research, and the experimental protocol was approved by the Institutional Animal Care and Use Committee (IACUC) at LSUH.
(§1) The rats were anesthetized by intraperitoneal injection of Ketamine (50-100 mg/kg) plus xylazine (5-10 mg/kg). A 4 mm diameter filter paper soaked in 1 N NaOH was placed on the central cornea of the right eye for 45 seconds, and then the eye was thoroughly washed with […] of saline. After injury, the rats were randomly divided into five treatment groups: vehicle; lipoxin A4 (LXA4) from Cayman Chemical (Ann Arbor, MI, USA); R,R Resolvin D6 isomer (RvD6i), R,R neuroprotection D (NPD1), and elovanoid (ELV)-N32. All lipid solutions were prepared at the final concentration of […] using PBS with the minimal contamination of ethanol by evaporating the ethanol and immediately dissolve the lipids in PBS, then vortex well for 2 min. Topical administration (20 μl) was done 3×/day for 14 days. The experiments were double-blinded with the lipid mediators coded during the whole experiments. At the end of the study, when all data was collected, the code was opened.
Briefly, samples were lysed with RIPA buffer containing a protease inhibitor cocktail (Sigma, Cat. P8340). Cell debris was removed after 10 min centrifugation at 16,000×g. Protein concentration was determined by BCA assay (Thermo Fisher Scientific, Cat. 23225) and 1 μg used/reaction. Fluorescent Master Mix was mixed with 40 mM DTT, and the mixture was added to each sample to provide a denaturing and reducing environment. Samples were heated at 95° C./5 min, and 3 μL of each sample were loaded. The 12-230 kDa cartridge (Protein Simple—#SM-W004) was used. Primary antibodies were diluted in antibody diluent 2 buffer (Protein Simple, #042-203) while the working solution of secondary antibodies was provided by the company (Protein Simple, #042-206). Then, the filled plate was spin-down for 10 min at 1,000×g to remove bubbles and plate, and capillaries were loaded into the Jess machine. For data analysis, the area of spectra that matched the molecular weight of the target protein was used. To reduce the coefficient variant, we analyzed the GAPDH for each capillary. The ratio of the targeted protein to GAPDH was used for statistical comparisons. For visualization, the artificial lanes generated from spectra volume was used.

Assay [3] deals with Alexa 594-RBD. It is filed as in vivo. The settings on record: rat cornea after alkali burn; 14 days treatment; Alexa 594-RBD 1 μg/eye, 3 times at day 15, examined a day later.
Assay [4] concerns ACE2. Description: Rat cornea alkali burn: corneal RNA-seq, Ace2 gene expression. In kind it is in vivo. The following applies: rat cornea after alkali burn; eye drops 3 times/day for 14 days; RNA-seq day 14. How it is done: as §1
(§2) Injured corneas (n=5/condition) were harvested and homogenized with TRIzol (Thermo Fisher Scientific) on ice with a glass Dounce homogenizer. RNA sequencing was performed as described^14. Briefly, after mRNA extraction and determination of purity, 8 ng of total RNA was reverse transcribed, and total cDNAs were amplified using ISPCR primer, and the library was made with the Nextera XT DNA library preparation kit (Illumina, San Diego, CA, USA). The libraries were pooled with the same molarity and sequenced using the NextSeq 500/550 High Output Kit v2 (75 cycles, Illumina). After demultiplexing, RNA-seq data were aligned to the Rattus Norvegicus reference genome (.ensembl.org/pub/release-98/fasta/rattus_norvegicus/dna/) using the Subread package v2.0.1 alignment function39. The BAM files for sequencing data alignment were counted using featureCounts function of Subread tool^40 using the macOS Catalina. The raw count data were subjected to differential gene expression analysis using DESeq2 package for R^41 with the vehicle group as reference. The adjusted p-values were named as the false discover rate (FDR).

The test system of the next assay is injured rat cornea. Description: Rat cornea alkali burn: corneal RNA-seq, cytokine storm, NFkB/inflammation, senescence, integrin and protease genes. In kind it is in vivo. The following applies: rat cornea, RNA-seq 14 days after injury. How it is done: as §1, §2
Assay [5] concerns ACE2. Description: HCEC challenged with IFNγ: Ace2 gene expression. In kind it is cell-based, human. The following applies: IFNγ 100 ng/ml. An excerpt:
(§3) All experiments with human corneal epithelial cells were approved by the Institutional Review Board of LSUHNO and conducted in accordance with NIH guidelines. HCEC were kept frozen in the laboratory at passage 2544. Cells were maintained in keratinocyte growth (KGM) medium containing the keratinocyte basal medium (KBM) (Lonza: CC-3101) supplemented with bovine pituitary extract (BPE), hEGF, Insulin, Hydrocortisone and Gentamicin Sulfate-Amphotericin (GA-1000) (Lonza, Cat. CC-4131). For all experiments, cells were seeded at 30,000 cells/cm2.
(§4) For screening the stimulation of receptor ACE2 by cytokines, the HCEC were cultured with KGM until 50-60% confluence. Then, changed to KBM containing IL-1β, -2, -6 and 8, IFN-α, -ε, and -γ or TNFα at 1, 10 or 100 ng/ml. The cells were harvested after 6 hours and analyze for the gene expression of Ace2. In other experiments, HCEC were stimulated with IFNγ, and thereafter, lipid mediators were added. For the Alexa 594-conjugated RBD binding, IFNγ was used as a cytokine trigger. At 12 hours after cytokine exposure and lipid mediator treatments, […] of labeled RBD was added to the medium. The evaluation of RBD binding was conducted 24 hours after.
Quantitative PCR was performed with the Biomark HD system (Fluidigm, San Francisco, CA, USA). […]

Another assay deals with Cdkn2a (p16INK4a). Description: HCEC challenged with IFNγ: Cdkn2a gene expression. The settings on record: IFNγ 100 ng/ml. In kind it is cell-based, human.
Excerpt: as §3, §4
Quantitative PCR was performed with the Biomark HD system (Fluidigm, San Francisco, CA, USA). Briefly, 200 ng of RNA was reverse-transcribed using iScript Reverse Transcription Supermix (Bio-Rad), and the cDNA was pre-amplified using the PreAmp Master Mix (PN 100-5580; Fluidigm). The cDNA was then subjected to Exonuclease I treatment and diluted 5 times in TE Buffer. The qPCR reaction mixture and primer reaction mixture were made and loaded into the Biomark 96.96 IFC™ (Integrated Fluidic Circuit). The enzyme reaction was mixed using Juno™ Controller (Fluidigm) and run using the cycling program of (i) 70° C. for 40 minutes followed by 60° C. for 30 seconds, (ii) hot start for 1 minute at 95° C., (iii) 30 cycles of denaturation at 96° C. for 5 seconds, and annealing at 60° C. for 20 seconds, and (iv) melting curves between 60° C. and 95° C. with 1° C. increments/3 seconds. The Ct value of target genes was normalized to the house-keeping genes Gapdh, Hprt1, and Tfrc before normalized to the vehicle group. Relative fold changes from the ΔΔCT calculation was used to make the graph.

The test system of assay [6] is Alexa 594-RBD. Description: HCEC challenged with IFNγ: Alexa 594-RBD binding (unbiased imaging, Imaris). It is filed as cell-based, human. The following applies: IFNγ 100 ng/ml and lipid mediators 200 nM for 12 h, images 24 h after RBD. How it is done:
as §4
Twenty-four hours after Alexa 594-RBD was added to the HCEC, the cells were washed with PBS (3×/5 min) and fixed with 4% paraformaldehyde for 30 minutes at RT. The HCEC were washed 2× with PBS and stained with Hoechst 33342 Solution (ThermoFisher Scientific, Cat. 62249) for 30 minutes at RT. Next, the HCEC were washed 2× with PBS before imaging. For unbiased data collection, 7 designated areas were defined in each well (FIG. 63) and captured with an Olympus FV3000 confocal laser scanning microscopy under “Multi Area Time Lapse” (MATL) mode. All images were acquired with the same parameters and Z-section range, converted and inputted in the Imaris software version 9.5.1. The threshold for the control images was defined by the HCEC without Alexa 594-conjugated RBD of S protein and using it as a threshold filter for the Imaris batch image processing function. The sum of total intensity for each image was used to evaluate the binding efficiency.

The test system of assay [7] is human corneal epithelial cells (HCEC). The assay is described as follows: HCEC challenged with IFNγ: SASP secretome (β-Gal staining). In kind it is cell-based. The settings on record: HCEC 24 h after IFN-γ challenge.

As for `CC/C=C\CC(O)\C=C/C=C/C=C/C(O)C/C=C\C/C=C\CCCCCCCCCCCCCCC(=O)O` [ELV-N34, (16Z,19Z,22R,23E,25E,27Z,29S,31Z)-22,29-dihydroxytetra-triaconta-16,19,23,25,27,31-hexaenoic acid], the “RBD protein internalization (RBD located below the membrane line)” value in assay [1] is “decrease”. In addition, the “expression of the ACE-2 receptor (protein abundance, Jess)” value in the assay with ACE-2 receptor is “downregulate”.
With `CC/C=C\C[C@@H](O)/C=C/C=C\C/C=C\C/C=C\C=C\[C@H](O)CCC(=O)O` [RvD6i], the “ACE2 abundance (protein, normalized to GAPDH)” value in the assay with ACE2 [2] is “decrease”. Besides, in the assay with Alexa 594-RBD [3], the “binding of Alexa 594-RBD to injured cornea” value was “decrease; also recorded: counteracted”. Also, the “Ace2 gene expression levels” value in the assay on ACE2 [4] was “decrease”. Moreover, in the assay with injured rat cornea, the “51 injury-upregulated genes (cytokines, SASP, NFkB inflammatory)” value was “most are inhibited”; the “Il6 and Vegfa expression” value is “reduced”; the “integrin gene expression (Itga5 and Itgb 1)” value is “significantly decreased; also recorded: decrease”; the “transcriptomic profile in PCA plot relative to control cornea” value was “nearest to the normal cornea”. Besides, the “IFNγ-triggered Ace2 activation” value in the assay with ACE2 [5] is listed as “markedly attenuated; also recorded: suppressed”. Moreover, the Cdkn2a activation result with Cdkn2a (p16INK4a) was “decrease”. In addition, the “IFNγ-stimulated Alexa 594-RBD binding” value in the assay with Alexa 594-RBD [6] is listed as “attenuated”. For the same compound, the “senescence programming genes and SASP secretome activation (β-Gal)” value in assay [7] is given as “blocked; also recorded: suppressed”.
